Test results taken from paper PMC3124791 (2011).
pIC50: −log10 of the molar value.

Target: BACE-1 (β-secretase) (Homo sapiens, UniProt P56817)
Test: cell-free chemoluminescent BACE-1 activity assay
Type: biochemical

BACE-1 (β-secretase), sequence (P56817 46-457): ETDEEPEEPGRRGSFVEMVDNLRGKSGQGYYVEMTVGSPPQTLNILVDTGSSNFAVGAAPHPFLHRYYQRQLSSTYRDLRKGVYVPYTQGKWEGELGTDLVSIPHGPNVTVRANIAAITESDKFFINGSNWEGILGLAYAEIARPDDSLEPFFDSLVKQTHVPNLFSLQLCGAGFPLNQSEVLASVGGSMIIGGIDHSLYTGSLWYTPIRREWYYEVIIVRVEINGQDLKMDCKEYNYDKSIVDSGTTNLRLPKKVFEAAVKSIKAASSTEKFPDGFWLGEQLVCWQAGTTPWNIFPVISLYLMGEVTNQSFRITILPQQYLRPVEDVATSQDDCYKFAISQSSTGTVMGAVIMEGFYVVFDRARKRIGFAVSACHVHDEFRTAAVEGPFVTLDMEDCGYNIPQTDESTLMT

Row | Structure (SMILES) | pIC50
1 | O=c1cc(-c2ccc(O)cc2)oc2cc(O)cc(O)c12 [apigenin, 4',5,7-Trihydroxyflavone] | 4.47
2 | O=c1c(O)c(-c2ccc(O)cc2)oc2cc(O)cc(O)c12 [kaempferol, 3,5,7-Trihydroxy-2-(4-hydroxyphenyl)-4H-1-benzopyran-4-one] | 4.56
